Data as given in patent publication US20100093642A1, “NOVEL POLYPEPTIDES” (priority 2006, published 2010).
Residues, ends and D or L forms follow the SMILES beside them. No end group written: not given here.

Columns and labels:
E. coli K-12 = assay: Bacterial cell viability, lux luminescence and OD600, with or without LPS; assay type: cell-based, Escherichia coli; settings: co-incubation with 2.5 μM Aeromonas salmonicida LPS
From the text: (§1) To evaluate the effect of antimicrobial peptides on the viability of bacteria in a fast and reliable manner we used the lux CDABE operon from Photorhabdus luminescens as a reporter system in gram negative test bacteria and the modified luxABCDE operon in S. aureus (Vesterlund et al. 2004). Bacterial bioluminescence is directly dependent on metabolic activity, since reduction equivalents are needed to drive light emission. Any form of interruption of bacterial cell integrity or metabolism will therefore be detected as a reduction in light emission.
(§2) For the assay we used S. aureus (RN4220), E. coli K-12 and Salmonella enterica serovar typhimurium (ATCC 14028) transformed with the respective lux-operon containing plasmids (Vesterlund et al. 2004).
(§3) For each experiment a fresh colony was picked from Luria-Bertani plates supplemented with 10 μg/ml of erythromycin in case of S. aureus and with 100 μg/ml of ampicillin in case of E. coli and S. enterica serovar Typhimurium. Each colony was suspended in 5 ml of Müller-Hinton medium with appropriate antibiotics. The culture was incubated over night at 37° C. in a shaking incubator. The next morning 0.5 ml of this culture was transferred to 30 ml fresh MH medium in an Erlenmeyer-flask supplemented with the respective antibiotic. The flask was incubated (200 rpm shaking; 37° C.) until an OD600 of 0.5-0.8 was reached. The culture was then diluted to an OD600 of about 0.02-0.03 before transfer to the 96 well opaque plates with optical bottom (Packard ViewPlate) used for the assay.
The synthesized peptides were dissolved in water and aliquots frozen at −18° C. until use. Twofold dilutions of test peptides (final concentrations ranging from 0.31 to 80 μM) were directly prepared in 96 well microtiter plates in a volume of 10 μl in water. 90 μl is of indicator bacteria in MH medium were added directly to the prepared and pre-warmed (30 minutes at 37° C.) plate before starting the measurement in a Victor multiplate reader (Perkin Elmer) at 37° C. Both OD600 and luminescence in counts per second (cps) were followed over 5 hours in measuring intervals of 5 minutes. The plates where shaken before each measurement (20 sec.; 5 mm orbital shaking; 10 sec waiting). The growth curves and light emission curves were drawn and evaluated to determine the MIC for each indicator strain. The MIC was defined as the concentration of test compound causing more than 50% reduction in bioluminescence (cps) or optical density (OD600) after 5 hours, compared to the growth control. Cecropin P1 was used as positive control. […]
A second plate with an otherwise similar setup (as described for the luminescence assay in example 3) was prepared, but with addition of Aeromonas salmonicida LPS to the peptide dilutions before pre-warming. […]

[1] = system: Salmonella enterica serovar typhimurium (ATCC 14028); assay: as above; assay type: cell-based; settings: co-incubation with 2.5 μM Aeromonas salmonicida LPS
From the text: as §1, §2, §3
The synthesized peptides were dissolved in water and aliquots frozen at −18° C. until use. Twofold dilutions of test peptides (final concentrations ranging from 0.31 to 80 μM) were directly prepared in 96 well microtiter plates in a volume of 10 μl in water. 90 μl is of indicator bacteria in MH medium were added directly to the prepared and pre-warmed (30 minutes at 37° C.) plate before starting the measurement in a Victor multiplate reader (Perkin Elmer) at 37° C. Both OD600 and luminescence in counts per second (cps) were followed over 5 hours in measuring intervals of 5 minutes. The plates where shaken before each measurement (20 sec.; 5 mm orbital shaking; 10 sec waiting). The growth curves and light emission curves were drawn and evaluated to determine the MIC for each indicator strain. The MIC was defined as the concentration of test compound causing more than 50% reduction in bioluminescence (cps) or optical density (OD600) after 5 hours, compared to the growth control. Cecropin P1 was used as positive control. The results (table 14a-b) confirm the results obtained in example 2, showing a pronounced antibacterial effect of the longest peptide fragments. […] The partial peptides P17 HC (1-20), both bromated and unbromated, inhibit growth only in higher concentrations.
A second plate with an otherwise similar setup (as described for the luminescence assay in example 3) was prepared, but with addition of Aeromonas salmonicida LPS to the peptide dilutions before pre-warming. The LPS end concentration in each well was approximately 2.5 μM.

[2] = system: C. glutamicum (ATCC 13032); assay type: cell-based, Corynebacterium glutamicum
Summary of the method: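 Peptide fractions were incubated with actively growing bacteria in Mueller Hinton medium at a starting concentration of 3×10^4 cells per ml. Growth was monitored continuously in a Bioscreen C reader; polymyxin B served as reference.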

THP-1 cells = assay: in vitro; assay type: cell-based, human
Experimental: The toxicity of test peptides on THP-1 cells was measured using the MIT method (Mosmann, 1983), with minor modifications. To induce monocyte-macrophage differentiation, THP-1 cells were cultured in 96-well culture plates (10^6 cells/well) in a volume of 100 μl RPMI 1640 medium, containing 50 ng/ml PMA (which is known to induce the maturation of monocytes) and incubated in a humidified atmosphere of 5% CO2 at 37° C. for 48 hours. The medium was then removed and the cells were washed with PBS, added 100 μl fresh medium (without PMA) and incubated for another 24 hours. Medium was removed and the adherent macrophages were treated with 100 μl of peptide solution (concentrations ranging from 0 to 800 μg/ml), diluted in RPMI-1640 assay medium without FBS. After incubation at 37° C. for 1 hour, the cells were added LPS (0.1 μg/ml) and further incubated for 4 hours. Cells treated with Triton X-100 (1%) were used as positive control (100% killing) whereas cells plus medium only were used as negative control. Following the incubation period, 10 μl MTT (5 mg/ml) dissolved in phosphate-buffered saline (PBS) was added to each well, and the plate was further incubated for 2 hours. A volume of 70 μl of the supernatant was then removed and 100 μl acid alcohol (0.04 M HCl in isopropanol) added to each well to dissolve the dark blue crystals. The plate was placed on a shaker for 1 hour at room temperature and read spectrophotometrically at 595 nm in a microtiter plate reader (DTX880 Multimode Detector, Beckman Coulter). Cell survival (%) was then determined from the ΔA595 nm relative to negative control (100% living cells) and expressed as 50% inhibitory concentration (IC50). The IC50 values were estimated from the dose-response curves, which were obtained by averaging at least 3 parallel experiments.

| Compound | MIC, more than 50% reduction in optical density, E. coli, P + LPS (E. coli K-12; OD600, 5 hours) | MIC, more than 50% reduction in luminescence, E. coli, P + LPS (E. coli K-12; luminescence (cps), 5 hours) | MIC, more than 50% reduction in optical density, S. enterica, P + LPS ([1]; OD600, 5 hours) | MIC, more than 50% reduction in luminescence, S. enterica, P + LPS ([1]; luminescence (cps), 5 hours) | Minimal inhibitory concentration, C. glutamicum [2] | Toxicity to THP-1 cells TC50 (THP-1 cells) |
| --- | --- | --- | --- | --- | --- | --- |
| CC[C@H](C)[C@H](NC(=O)CNC(=O)[C@H](CO)NC(=O)[C@H](CCCCN)NC(=O)[C@@H](NC(=O)[C@H](C)NC(=O)[C@H](Cc1c[nH]cn1)NC(=O)[C@H](CO)NC(=O)[C@@H](NC(=O)[C@H](CCCCN)NC(=O)[C@H](Cc1c[nH]cn1)NC(=O)[C@H](Cc1ccccc1)NC(=O)[C@@H](NC(=O)[C@H](CCCCN)NC(=O)[C@H](CCCCN)NC(=O)[C@H](Cc1ccccc1)NC(=O)C(Cc1c[nH]c2ccc(Br)cc12)NC(=O)CN)[C@@H](C)O)C(C)C)C(C)C)C(=O)N[C@@H](Cc1c[nH]cn1)C(=O)N[C@@H](C)C(=O)O (stereo partly drawn) [P17 HC-Br (1-20)] (HELM PEPTIDE1{G.[O=C(C(Cc1c[nH]c2ccc(Br)cc12)N[*:1])[*:2]].F.K.K.T.F.H.K.V.S.H.A.V.K.S.G.I.H.A}$$$$V2.0; N-terminus and C-terminus assumed) | 40 µM | 20 µM | 10 µM | 10 µM |  |  |
| GWFKKTFHKVSHAVKSGIHA [P17 HC (1-20)] |  |  |  |  | 1.56 µM | —^b |
